Data: the NIST ThermoML archive (doi:10.1021/je200921u)
Numbers after ± are expanded uncertainties. Each block holds one molecule with its values, some of them ahead of it.

Conditions: Liquid, Ebulliometric method (Recirculating still)

- vapor or sublimation pressure (351.35 K): 101.3 ± 2.6 kPa
- vapor or sublimation pressure (356.11 K): 121.3 ± 3.1 kPa
- vapor or sublimation pressure (363.55 K): 161.3 ± 4.1 kPa
- vapor or sublimation pressure (369.55 K): 201.3 ± 5.1 kPa
Structure (SMILES): CCO [ethanol]

- vapor or sublimation pressure (355.35 K): 101.3 ± 2.6 kPa
- vapor or sublimation pressure (359.95 K): 121.3 ± 3.1 kPa
- vapor or sublimation pressure (367.65 K): 161.3 ± 4.1 kPa
- vapor or sublimation pressure (373.65 K): 201.3 ± 5.1 kPa
Structure (SMILES): CC(C)O [propan-2-ol]

Structure (SMILES): Cc1ccccc1 [toluene]
- vapor or sublimation pressure (383.55 K): 101.3 ± 2.7 kPa
- vapor or sublimation pressure (390.25 K): 121.3 ± 3.2 kPa
- vapor or sublimation pressure (390.26 K): 121.3 ± 3.2 kPa
- vapor or sublimation pressure (400.75 K): 161.3 ± 4.3 kPa
- vapor or sublimation pressure (409.65 K): 201.3 ± 5.3 kPa
